Measurements: the supplement of paper PMC10307832

Legend:
Assay in all cases: relative viability (nuclei count vs DMSO), 5 days (fraction); higher = more cells survive
A549 = system: A549
Method in brief: (§1)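 After 5 days of treatment, lung cancer cells in 1536-well plates were fixed and stained in a single step (final 0.05% Triton X-100, 1% formaldehyde, 1 ug/ml Hoechst) and their nuclei counted on 4× images. Treatment had been applied by pin tool the day after seeding as one drug alone or as a fixed anchor-drug dose with five library-drug doses (not always all listed) in √10 steps. Relative viability is the nuclei count of treated wells divided by that of vehicle wells, and values are medians of duplicate plates.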

Calu-6 = system: Calu-6
Method in brief: as §1

EBC-1 = system: EBC-1
Method in brief: as §1

IA-LM = system: IA-LM
Method in brief: as §1

NCI-H1299 = system: NCI-H1299
Method in brief: as §1

NCI-H1648 = system: NCI-H1648
Method in brief: as §1

NCI-H1651 = system: NCI-H1651
Method in brief: as §1

NCI-H1703 = system: NCI-H1703
Method in brief: as §1

NCI-H1944 = system: NCI-H1944
Method in brief: as §1

NCI-H520 = system: NCI-H520
Method in brief: as §1

NCI-H650 = system: NCI-H650
Method in brief: as §1

NCI-H838 = system: NCI-H838
Method in brief: as §1

PC-3 [JPC-3] = system: PC-3 [JPC-3]
Method in brief: as §1

RERF-LC-KJ = system: RERF-LC-KJ
Method in brief: as §1

Q: With `Cc1sc2c(c1C)C(c1ccc(Cl)cc1)=N[C@@H](CC(=O)OC(C)(C)C)c1nnc(C)n1-2` [JQ1] + O=C(c1cc(Cc2n[nH]c(=O)c3ccccc23)ccc1F)N1CCN(C(=O)C2CC2)CC1 [Olaparib] (partner 8 µM) as the compound, how does the relative viability (A549; first compound 0.04 µM) read?
A: 0.303

Q: And the relative viability (A549; first compound 0.1265 µM)?
A: 0.213

Q: What about the relative viability (A549; first compound 0.4 µM) of the same compound?
A: 0.255

Q: What about the relative viability (A549; first compound 1.265 µM) of the same compound?
A: 0.102

Q: What about the relative viability (A549; first compound 4 µM) of the same compound?
A: 0.045

Q: And the relative viability (Calu-6; first compound 0.04 µM)?
A: 0.536

Q: And the relative viability (Calu-6; first compound 0.1265 µM)?
A: 0.408

Q: What about the relative viability (Calu-6; first compound 0.4 µM) of the same compound?
A: 0.511

Q: What about the relative viability (Calu-6; first compound 1.265 µM) of the same compound?
A: 0.251

Q: And the relative viability (Calu-6; first compound 4 µM)?
A: 0.249

Q: What about the relative viability (EBC-1; first compound 0.04 µM) of the same compound?
A: 0.74

Q: And the relative viability (EBC-1; first compound 0.1265 µM)?
A: 0.473

Q: What about the relative viability (EBC-1; first compound 0.4 µM) of the same compound?
A: 0.312

Q: What about the relative viability (EBC-1; first compound 1.265 µM) of the same compound?
A: 0.093

Q: And the relative viability (EBC-1; first compound 4 µM)?
A: 0.113

Q: What about the relative viability (IA-LM; first compound 0.04 µM) of the same compound?
A: 0.739

Q: And the relative viability (IA-LM; first compound 0.1265 µM)?
A: 0.508

Q: What about the relative viability (IA-LM; first compound 0.4 µM) of the same compound?
A: 0.17

Q: And the relative viability (IA-LM; first compound 1.265 µM)?
A: 0.115

Q: And the relative viability (IA-LM; first compound 4 µM)?
A: 0.117

Q: And the relative viability (NCI-H1299; first compound 0.04 µM)?
A: 0.931

Q: What about the relative viability (NCI-H1299; first compound 0.1265 µM) of the same compound?
A: 0.787

Q: What about the relative viability (NCI-H1299; first compound 0.4 µM) of the same compound?
A: 0.972

Q: And the relative viability (NCI-H1299; first compound 1.265 µM)?
A: 0.298

Q: What about the relative viability (NCI-H1299; first compound 4 µM) of the same compound?
A: 0.235

Q: What about the relative viability (NCI-H1648; first compound 0.04 µM) of the same compound?
A: 0.66

Q: What about the relative viability (NCI-H1648; first compound 0.1265 µM) of the same compound?
A: 1.03

Q: What about the relative viability (NCI-H1648; first compound 0.4 µM) of the same compound?
A: 0.462

Q: What about the relative viability (NCI-H1648; first compound 1.265 µM) of the same compound?
A: 0.485

Q: What about the relative viability (NCI-H1648; first compound 4 µM) of the same compound?
A: 0.289

Q: What about the relative viability (NCI-H1651; first compound 0.04 µM) of the same compound?
A: 0.175

Q: And the relative viability (NCI-H1651; first compound 0.1265 µM)?
A: 0.173

Q: What about the relative viability (NCI-H1651; first compound 0.4 µM) of the same compound?
A: 0.151

Q: And the relative viability (NCI-H1651; first compound 1.265 µM)?
A: 0.132

Q: And the relative viability (NCI-H1651; first compound 4 µM)?
A: 0.136

Q: What about the relative viability (NCI-H1703; first compound 0.04 µM) of the same compound?
A: 0.458

Q: And the relative viability (NCI-H1703; first compound 0.4 µM)?
A: 0.498

Q: What about the relative viability (NCI-H1703; first compound 1.265 µM) of the same compound?
A: 0.236

Q: What about the relative viability (NCI-H1703; first compound 4 µM) of the same compound?
A: 0.234

Q: And the relative viability (NCI-H1944; first compound 0.04 µM)?
A: 0.405

Q: What about the relative viability (NCI-H1944; first compound 0.1265 µM) of the same compound?
A: 0.391

Q: What about the relative viability (NCI-H1944; first compound 0.4 µM) of the same compound?
A: 0.314

Q: What about the relative viability (NCI-H1944; first compound 1.265 µM) of the same compound?
A: 0.232

Q: What about the relative viability (NCI-H1944; first compound 4 µM) of the same compound?
A: 0.235

Q: And the relative viability (NCI-H520; first compound 0.04 µM)?
A: 0.285

Q: And the relative viability (NCI-H520; first compound 0.1265 µM)?
A: 0.298

Q: What about the relative viability (NCI-H520; first compound 0.4 µM) of the same compound?
A: 0.251

Q: And the relative viability (NCI-H520; first compound 1.265 µM)?
A: 0.165

Q: And the relative viability (NCI-H520; first compound 4 µM)?
A: 0.156

Q: What about the relative viability (NCI-H650; first compound 0.04 µM) of the same compound?
A: 0.363

Q: What about the relative viability (NCI-H650; first compound 0.1265 µM) of the same compound?
A: 0.306

Q: What about the relative viability (NCI-H650; first compound 0.4 µM) of the same compound?
A: 0.273

Q: And the relative viability (NCI-H650; first compound 1.265 µM)?
A: 0.151

Q: What about the relative viability (NCI-H650; first compound 4 µM) of the same compound?
A: 0.146

Q: What about the relative viability (NCI-H838; first compound 0.04 µM) of the same compound?
A: 0.749

Q: What about the relative viability (NCI-H838; first compound 0.1265 µM) of the same compound?
A: 0.327

Q: And the relative viability (NCI-H838; first compound 0.4 µM)?
A: 0.395

Q: And the relative viability (NCI-H838; first compound 1.265 µM)?
A: 0.237

Q: And the relative viability (NCI-H838; first compound 4 µM)?
A: 0.174

Q: What about the relative viability (PC-3 [JPC-3]; first compound 0.04 µM) of the same compound?
A: 1.1

Q: And the relative viability (PC-3 [JPC-3]; first compound 0.1265 µM)?
A: 0.992

Q: What about the relative viability (PC-3 [JPC-3]; first compound 0.4 µM) of the same compound?
A: 1.05

Q: And the relative viability (PC-3 [JPC-3]; first compound 1.265 µM)?
A: 0.66

Q: And the relative viability (PC-3 [JPC-3]; first compound 4 µM)?
A: 0.385

Q: What about the relative viability (RERF-LC-KJ; first compound 0.04 µM) of the same compound?
A: 0.904

Q: And the relative viability (RERF-LC-KJ; first compound 0.1265 µM)?
A: 0.808

Q: What about the relative viability (RERF-LC-KJ; first compound 0.4 µM) of the same compound?
A: 0.669

Q: And the relative viability (RERF-LC-KJ; first compound 1.265 µM)?
A: 0.42

Q: What about the relative viability (RERF-LC-KJ; first compound 4 µM) of the same compound?
A: 0.338
